Test system: UM16 cell line
Assay: GSEA of Bru-seq data (hallmark, KEGG, GO pathways, transcription factors)
Type: cell-based
Design: ES KEGG_MISMATCH_REPAIR / ES KEGG_HUNTINGTONS_DISEASE / ES KEGG_ALZHEIMERS_DISEASE / ES KEGG_VIBRIO_CHOLERAE_INFECTION / NES KEGG_VIBRIO_CHOLERAE_INFECTION / ES KEGG_RIBOSOME / NES KEGG_RIBOSOME / NES KEGG_RNA_POLYMERASE: dose or concentration left out as unconfirmed
Excerpt: Consistent with this observation, there are also massive metabolite pathways influenced including starch and sucrose metabolism, glycolysis and gluconeogenesis, purine metabolism, pyrimidine metabolism, N-glycan biosynthesis, etc.

[1] = 5 μM, 4 hours, transcription factors
[2] = GO_AMIDE_BIOSYNTHETIC_PROCESS, 5 μM, 4 hours, FDR q-val 1.55E−04
[3] = GO_CYTOSOLIC_LARGE_RIBOSOMAL_SUBUNIT, 5 μM, 4 hours, FDR q-val 0
[4] = GO_CYTOSOLIC_PART, 5 μM, 4 hours, FDR q-val 0
[5] = GO_CYTOSOLIC_RIBOSOME, 5 μM, 4 hours, FDR q-val 0
[6] = GO_ESTABLISHMENT_OF_PROTEIN_LOCALIZATION_TO_ENDOPLASMIC_RETICULUM, 5 μM, 4 hours, FDR q-val 0
[7] = GO_LARGE_RIBOSOMAL_SUBUNIT, 5 μM, 4 hours, FDR q-val 0
[8] = GO_MATURATION_OF_SSU_RRNA, 5 μM, 4 hours, FDR q-val 6.60E−05
[9] = GO_MULTI_ORGANISM_METABOLIC_PROCESS, 5 μM, 4 hours, FDR q-val 0
[10] = GO_NCRNA_METABOLIC_PROCESS, 5 μM, 4 hours, FDR q-val 0
[11] = GO_NCRNA_PROCESSING, 5 μM, 4 hours, FDR q-val 0
[12] = GO_NUCLEAR_TRANSCRIBED_MRNA_CATABOLIC_PROCESS_NONSENSE_MEDIATED_DECAY, 5 μM, 4 hours, FDR q-val 3.62E−05
[13] = GO_NUCLEOLAR_PART, 5 μM, 4 hours, FDR q-val 0
[14] = GO_PEPTIDE_METABOLIC_PROCESS, 5 μM, 4 hours, FDR q-val 3.46E−05
[15] = GO_PRERIBOSOME, 5 μM, 4 hours, FDR q-val 0
[16] = GO_PROTEIN_LOCALIZATION_TO_ENDOPLASMIC_RETICULUM, 5 μM, 4 hours, FDR q-val 0
[17] = GO_RIBONUCLEOPROTEIN_COMPLEX_BIOGENESIS, 5 μM, 4 hours, FDR q-val 0
[18] = GO_RIBOSOMAL_SMALL_SUBUNIT_BIOGENESIS, 5 μM, 4 hours, FDR q-val 0
[19] = GO_RIBOSOMAL_SUBUNIT, 5 μM, 4 hours, FDR q-val 0
[20] = GO_RIBOSOME, 5 μM, 4 hours, FDR q-val 0
[21] = GO_RIBOSOME_BIOGENESIS, 5 μM, 4 hours, FDR q-val 0
[22] = GO_RRNA_BINDING, 5 μM, 4 hours, FDR q-val 0
[23] = GO_RRNA_METABOLIC_PROCESS, 5 μM, 4 hours, FDR q-val 0
[24] = GO_STRUCTURAL_CONSTITUENT_OF_RIBOSOME, 5 μM, 4 hours, FDR q-val 0
[25] = GO_TRANSLATIONAL_INITIATION, 5 μM, 4 hours, FDR q-val 0
[26] = GO_TRNA_PROCESSING, 5 μM, 4 hours, FDR q-val 3.79E−05
[27] = transcription factor set AAAYWAACM_HFH4_01, 5 μM, 4 hours, FDR q-val 0.013
[28] = transcription factor set AP4_Q5, 5 μM, 4 hours, FDR q-val 0.043
[29] = transcription factor set ATF1_Q6, 5 μM, 4 hours, FDR q-val 0.053
[30] = transcription factor set FAC1_01, 5 μM, 4 hours, FDR q-val 0.043
[31] = transcription factor set FOXO1_01, 5 μM, 4 hours, FDR q-val 0.039
[32] = transcription factor set FOXO3——01, 5 μM, 4 hours, FDR q-val 0.015
[33] = transcription factor set FREAC2_01, 5 μM, 4 hours, FDR q-val 0.008
[34] = transcription factor set HFH3_01, 5 μM, 4 hours, FDR q-val 0.042
[35] = transcription factor set OCT_Q6, 5 μM, 4 hours, FDR q-val 0.051
[36] = transcription factor set RTAAACA_FREAC2_01, 5 μM, 4 hours, FDR q-val 0.025

## CCOC(=O)[C@@H]1CCCN(S(=O)(=O)c2ccc(S(=O)(=O)N(CC)CC)cc2)C1 [DX2-201, ethyl (R)-1-((4-(N,N-diethylsulfamoyl)phenyl)sulfonyl)piperidine-3-carboxylate]
[1]
  ES E2F1_Q6: −0.355
  ES E2F1_Q6_01: −0.352
  ES E2F_03: −0.360
  ES E2F_Q6: −0.352
  ES GGAANCGGAANY_UNKNOWN: −0.409
  ES MYCMAX_01: −0.425
  ES MYC_Q2: −0.429
  ES NMYC_01: −0.350
  ES SGCGSSAAA_E2F1DP2_01: −0.373
  ES YY1_Q6: −0.372
  NES E2F1_Q6: −1.568
  NES E2F1_Q6_01: −1.578
  NES E2F_03: −1.597
  NES E2F_Q6: −1.565
  NES GGAANCGGAANY_UNKNOWN: −1.661
  NES MYCMAX_01: −1.853
  NES MYC_Q2: −1.792
  NES NMYC_01: −1.545
  NES SGCGSSAAA_E2F1DP2_01: −1.581
  NES YY1_Q6: −1.643
4 hours
  ES KEGG_ALZHEIMERS_DISEASE: −0.3872
  ES KEGG_HUNTINGTONS_DISEASE: −0.4035
  ES KEGG_MISMATCH_REPAIR: −0.6381
  ES KEGG_RIBOSOME: −0.6266
  ES KEGG_VIBRIO_CHOLERAE_INFECTION: −0.4430
  NES KEGG_RIBOSOME: −2.4526
  NES KEGG_RNA_POLYMERASE: −1.9613
  NES KEGG_VIBRIO_CHOLERAE_INFECTION: −1.4689
4 hours of treatment
  DNA repair and mismatch repair gene sets (Bru-seq): downregulated
  glycolysis pathway (Bru-seq): dramatically upregulated
  myc target gene sets and E2F target gene set (Bru-seq): downregulated
  oxidative phosphorylation (Bru-seq): significantly downregulated
[2]
  ES: −0.454
  NES: −2.193
[3]
  ES: −0.629
  NES: −2.298
[4]
  ES: −0.537
  NES: −2.371
[5]
  ES: −0.626
  NES: −2.548
[6]
  ES: −0.589
  NES: −2.417
[7]
  ES: −0.585
  NES: −2.298
[8]
  ES: −0.642
  NES: −2.206
[9]
  ES: −0.557
  NES: −2.388
[10]
  ES: −0.528
  NES: −2.591
[11]
  ES: −0.594
  NES: −2.802
[12]
  ES: −0.539
  NES: −2.231
[13]
  ES: −0.630
  NES: −2.294
[14]
  ES: −0.461
  NES: −2.222
[15]
  ES: −0.648
  NES: −2.348
[16]
  ES: −0.563
  NES: −2.329
[17]
  ES: −0.552
  NES: −2.663
[18]
  ES: −0.653
  NES: −2.377
[19]
  ES: −0.581
  NES: −2.491
[20]
  ES: −0.589
  NES: −2.626
[21]
  ES: −0.616
  NES: −2.869
[22]
  ES: −0.650
  NES: −2.367
[23]
  ES: −0.604
  NES: −2.757
[24]
  ES: −0.539
  NES: −2.395
[25]
  ES: −0.590
  NES: −2.521
[26]
  ES: −0.559
  NES: −2.240
[27]
  ES: 0.431
  NES: 1.896
[28]
  ES: 0.393
  NES: 1.743
Transcription factor set AP4_Q6, 5 μM, 4 hours, FDR q-val 0.078
  ES: 0.377
Transcription factor set AREB6_04, 5 μM, 4 hours, FDR q-val 0.098
  ES: 0.346
[29]
  ES: 0.383
  NES: 1.701
Transcription factor set E47_01, 5 μM, 4 hours, FDR q-val 0.060
  ES: 0.363
[30]
  ES: 0.394
  NES: 1.751
Transcription factor set FOXJ2_02, 5 μM, 4 hours, FDR q-val 0.090
  ES: 0.364
[31]
  ES: 0.384
  NES: 1.732
Transcription factor set FOXO1_02, 5 μM, 4 hours, FDR q-val 0.007
  ES: 0.459
[32]
  ES: 0.417
  NES: 1.860
Transcription factor set FOXO4_01, 5 μM, 4 hours, FDR q-val 0.014
  ES: 0.464
Transcription factor set FOXO4_02, 5 μM, 4 hours, FDR q-val 0.007
  ES: 0.454
[33]
  ES: 0.440
  NES: 1.964
Transcription factor set FREAC3_01, 5 μM, 4 hours, FDR q-val 0.058
  ES: 0.375
[34]
  ES: 0.401
  NES: 1.733
Transcription factor set HNF3_Q6, 5 μM, 4 hours, FDR q-val 0.073
  ES: 0.392
Transcription factor set NKX62_Q2, 5 μM, 4 hours, FDR q-val 0.058
  ES: 0.387
Transcription factor set OCT1_Q5_01, 5 μM, 4 hours, FDR q-val 0.094
  ES: 0.357
[35]
  ES: 0.381
  NES: 1.697
Transcription factor set PAX2_02, 5 μM, 4 hours, FDR q-val 0.061
  ES: 0.374
[36]
  ES: 0.344
  NES: 1.816
Transcription factor set RYCACNNRNNRNCAG_UNKNOWN, 5 μM, 4 hours, FDR q-val 0.075
  ES: 0.462
Transcription factor set TTANWNANTGGM_UNKNOWN, 5 μM, 4 hours, FDR q-val 0.051
  ES: 0.511
Transcription factor set YWATTWNNRGCT_UNKNOWN, 5 μM, 4 hours, FDR q-val 0.059
  ES: 0.482
